Results on 2 molecules are retold here after ChEMBL document CHEMBL1146305, “Synthesis of pyochelin-norfloxacin conjugates” (Bioorg Med Chem Lett, 2007).

The source made the active and inactive calls. No cut-off for these calls is given here.

The subject of the experiment is Pseudomonas aeruginosa. The experiment is described as follows: Antibacterial activity against Pseudomonas aeruginosa PAO1. It is filed as functional, organism-based.

Consider `CCn1cc(C(=O)O)c(=O)c2cc(F)c(N3CCN(C(=O)OCOC(=O)CCC(=O)NCCCc4ccc(O)c(C5=NC(C6SCC(C(=O)O)N6C)CS5)c4)CC3)cc21` (configuration not stated), for which the outcome was Active.
As to `CCn1cc(C(=O)O)c(=O)c2cc(F)c(N3CCN(C(=O)OCOC(=O)CCC(=O)NCC#Cc4ccc(O)c(C5=NC(C6SCC(C(=O)O)N6C)CS5)c4)CC3)cc21` (configuration not stated), the outcome was Active.
